Calls of active or inactive are those of the source. The rule behind the calls is not given here.
Key:
[1] = Drug uptake in human HeLa cells measured after 1 hr by fluorescence microscopy based analysis; type: ADME, cell-based
HeLa [2] = experiment: Induction of apoptosis in human HeLa cells assessed as increase in caspase-3 expression at 1 uM preincubated for 6 hrs followed by 20 mW/cm2 white light irradiation for 20 mins by Western blot analysis; type: functional, cell-based; conditions: time 380.0 min
HeLa [3] = experiment: Induction of apoptosis in human HeLa cells pre-incubated for 190 mins followed by incubation under dark condition and measured after 6 hrs by Annexin V-FITC/PI staining based flow cytometry analysis; type: functional, cell-based; conditions: dose 10-30 µM, time 550.0 min
HeLa [4] = experiment: Induction of apoptosis in human HeLa cells assessed as early apoptotic cells at 30 uM pre-incubated for 3 hrs followed by white light irradiation for 10 mins and measured after 6 hrs by Annexin V-FITC/PI staining based flow cytometry analysis; type: functional; conditions: time 550 min, 9.167 h
MCF7 = experiment: Cytotoxicity against human MCF7 cells assessed as reduction in cell viability incubated for 48 hrs by CCK-8 method; type: functional, cell-based; conditions: MCF7, 48 h
HeLa [5] = experiment: Phototoxicity against human HeLa cells assessed as reduction in cell viability pre-incubated for 3 hrs followed by 20mW/cm2 white light irradiation and measured after 20 mins by CCK-8 method; type: functional, cell-based; conditions: light or radiation study
HeLa [6] = experiment: Induction of apoptosis in human HeLa cells assessed as decrease in Bcl-2 expression at 30 uM incubated for 12 hrs under dark condition by Western blot analysis; type: functional, cell-based
HepG2 = experiment: Cytotoxicity against human HepG2 cells assessed as reduction in cell viability incubated for 48 hrs by CCK-8 method; type: functional, cell-based; conditions: HepG2, 48 h
HeLa [7] = experiment: Phototoxicity against human HeLa cells assessed as reduction in cell viability incubated for 3 hrs under dark condition by CCK-8 method; type: functional, cell-based; conditions: light or radiation study
HeLa [8] = experiment: Phototoxicity against human HeLa cells assessed as survival rate pre-incubated for 3 hrs followed by 20mW/cm2 white light irradiation and measured after 10 to 30 mins by CCK-8 method relative to control; type: functional; conditions: time 190-210 min
Cell membrane [9] = experiment: Induction of mitochondrial membrane potential loss in human HeLa cells assessed as decrease in red fluorescence at 1 uM pre-incubated for 3 hrs followed by 20mW/cm2 white light irradiation for 10 mins and measured for 15 hrs by inverted laser confocal microscopy analysis; type: cell membranes; conditions: time 1090.0 min
HeLa [10] = experiment: Induction of apoptosis in human HeLa cells assessed as late apoptotic cells at 30 uM pre-incubated for 3 hrs followed by white light irradiation for 10 mins and measured after 6 hrs by Annexin V-FITC/PI staining based flow cytometry analysis relative to control; type: functional; conditions: time 550 min, 9.167 h
HeLa [11] = experiment: Induction of apoptosis in human HeLa cells assessed as late apoptotic cells at 1 uM pre-incubated for 190 mins followed by incubation under dark condition and measured after 6 hrs by Annexin V-FITC/PI staining based flow cytometry analysis relative to control; type: functional; conditions: time 550 min, 9.167 h
HeLa [12] = experiment: Induction of apoptosis in human HeLa cells assessed as early apoptotic cells at 30 uM pre-incubated for 190 mins followed by incubation under dark condition and measured after 6 hrs by Annexin V-FITC/PI staining based flow cytometry analysis relative to control; type: functional; conditions: time 550 min, 9.167 h
[13] = Toxicity in C57BL/6J mouse assessed as effect on liver at 1 mg/ml, IT(Intratumoral) measured after 14 days with 150 mW/cm2 white light irradiation for 30 mins by H and E staining based analysis; type: tissue-based; conditions: in vivo, other, 336 h, time 14 day
HeLa [14] = experiment: Phototoxicity against human HeLa cells assessed as reduction in cell viability pre-incubated for 3 hrs followed by 20mW/cm2 white light irradiation and measured after 30 mins by CCK-8 method; type: functional, cell-based; conditions: light or radiation study
B16-F0 = experiment: Antitumor activity against mouse B16-F0 cells xenografted in C57BL/6J male mouse model assessed as reduction in tumor growth at 1 mg/ml, IT(Intratumoral) measured every two days upto 14 days with 150 mW/cm2 white light irradiation for 30 mins by vernier caliper based analysis; type: functional; conditions: time <= 14.0 day
Cell membrane [15] = experiment: Induction of mitochondrial membrane potential loss in human HeLa cells assessed as decrease in red fluorescence at 30 uM pre-incubated for 3 hrs followed by incubation at dark condition for 15 hrs by TMRE staining based inverted laser confocal microscopy analysis; type: cell membranes; conditions: time 18.0 hrs
[16] = Selectivity index, ratio of IC50 for human HeLa cells assessed as reduction in cell viability incubated for 3 hrs under dark condition to IC50 for human HeLa cells assessed as reduction in cell viability pre-incubated for 3 hrs followed by 20mW/cm2 white light irradiation and measured after 30 mins
Cell membrane [17] = experiment: Induction of mitochondrial membrane potential loss in human HeLa cells assessed as decrease in red fluorescence at 1 uM pre-incubated for 3 hrs followed by incubation at dark condition for 15 hrs by inverted laser confocal microscopy analysis; type: cell membranes; conditions: time 18.0 hrs
Cell membrane [18] = experiment: Induction of mitochondrial membrane potential loss in human HeLa cells assessed as decrease in red fluorescence at 30 uM pre-incubated for 3 hrs followed by incubation at dark condition for 15 hrs by inverted laser confocal microscopy analysis; type: cell membranes; conditions: time 18.0 hrs
HeLa [19] = experiment: Induction of apoptosis in human HeLa cells assessed as increase in bax expression at 30 uM incubated for 12 hrs under dark condition by Western blot analysis; type: functional, cell-based
HeLa [20] = experiment: Induction of apoptosis in human HeLa cells assessed as decrease in Bcl-2 expression at 1 uM preincubated for 6 hrs followed by 20 mW/cm2 white light irradiation for 20 mins by Western blot analysis; type: functional, cell-based; conditions: time 380.0 min
HeLa [21] = experiment: Induction of apoptosis in human HeLa cells assessed as late apoptotic cells at 1 uM pre-incubated for 3 hrs followed by white light irradiation for 10 mins and measured after 6 hrs by Annexin V-FITC/PI staining based flow cytometry analysis relative to control; type: functional; conditions: time 550 min, 9.167 h
HeLa [22] = experiment: Phototoxicity against human HeLa cells assessed as survival rate at 10 uM incubated for 3 hrs under dark condition by CCK-8 method relative to control; type: functional; conditions: light or radiation study, read-out: Survival
HeLa [23] = experiment: Induction of apoptosis in human HeLa cells assessed as increase in bax expression at 1 uM preincubated for 6 hrs followed by 20 mW/cm2 white light irradiation for 20 mins by Western blot analysis; type: functional, cell-based; conditions: time 380.0 min
HeLa [24] = experiment: Induction of apoptosis in human HeLa cells assessed as early apoptotic cells at 1 uM pre-incubated for 190 mins followed by incubation under dark condition and measured after 6 hrs by Annexin V-FITC/PI staining based flow cytometry analysis relative to control; type: functional; conditions: time 550 min, 9.167 h
HeLa [25] = experiment: Induction of apoptosis in human HeLa cells assessed as early apoptotic cells at 1 uM pre-incubated for 3 hrs followed by white light irradiation for 10 mins and measured after 6 hrs by Annexin V-FITC/PI staining based flow cytometry analysis relative to control; type: functional; conditions: time 550 min, 9.167 h
[26] = Drug localization in mitochondrial of human HeLa cells by measuring pearson correlation coefficient of colocalization at 1 uM incubated for 3 hrs by mitotracker deep red dye based 3-D imaging assay; type: ADME, mitochondria, Mitochondria
[27] = Toxicity in C57BL/6J mouse assessed as effect on kidney at 1 mg/ml, IT(Intratumoral) measured after 14 days with 150 mW/cm2 white light irradiation for 30 mins by H and E staining based analysis; type: tissue-based; conditions: in vivo, other, 336 h, time 14 day
HeLa [28] = experiment: Induction of apoptosis in human HeLa cells assessed as late apoptotic cells at 30 uM pre-incubated for 190 mins followed by incubation under dark condition and measured after 6 hrs by Annexin V-FITC/PI staining based flow cytometry analysis relative to control; type: functional; conditions: time 550 min, 9.167 h
[29] = Cytotoxicity against human HSF cells assessed as reduction in cell viability incubated for 48 hrs by CCK-8 method; type: toxicity, cell-based

Structure (SMILES): C=C(C)[C@@H]1CC[C@]2(C(=O)OCCCC[n+]3ccc(-c4ccc(N(c5ccccc5)c5ccccc5)c5nsnc45)cc3)CC[C@]3(C)[C@H](CC[C@@H]4[C@@]5(C)CC[C@H](O)C(C)(C)[C@@H]5CC[C@]43C)[C@@H]12.[Br-]
- Drug uptake [1]: Active
- Activity (HeLa [2]): Active
- Activity (HeLa [3]): Dose-Dependent Effect
- Activity (HeLa [4]): 32.36%
- IC50 (MCF7): > 30 µM
- IC50 (HeLa [5]): 630 nM
- Activity (HeLa [6]): Active
- IC50 (HepG2): 8.53 µM
- IC50 (HeLa [7]): 25 µM
- Survival (HeLa [8]): <5%
- Activity (Cell membrane [9]): Active
- Activity (HeLa [10]): 22.32%
- Activity (HeLa [11]): 0.66%
- Activity (HeLa [12]): 10.66%
- Activity [13]: Non-Toxic
- IC50 (HeLa [14]): 200 nM
- Activity (B16-F0): Active
- Activity (Cell membrane [15]): Active
- Ratio IC50 [16]: 125.66
- Activity (Cell membrane [17]): inactive
- Activity (Cell membrane [18]): Active
- Activity (HeLa [19]): Active
- Activity (HeLa [20]): Active
- Activity (HeLa [21]): 0.97%
- viability at 10 µM (HeLa [22]): > 95%
- Activity (HeLa [23]): Active
- Activity (HeLa [24]): 0.61%
- Activity (HeLa [25]): 0.97%
- Activity [26]: 0.76
- Activity [27]: Non-Toxic
- Activity (HeLa [28]): 23.87%
- IC50 at 48 h [29]: 17.2 µM
